Test results reported in article PMC9945177, “Nature-Derived Epoxy Resin Monomers with Reduced Sensitizing Capacity—Isosorbide-Based Bis-Epoxides” (Chemical Research in Toxicology, 2023).

System: Female CBA/Ca mice
Assay: murine local lymph node assay (LLNA)
Type: in vivo
Method: Female CBA/Ca mice, 7 to 9 weeks of age, were purchased from NOVA SCB Charles River, Germany. The mice were housed in HEPA-filtered air flow cages and kept on standard laboratory diet and water ad lib. The regional ethics committee, Jordbruksverket, approved the protocol and the procedure was performed in accordance with the guidelines.
A previously published protocol[24] of the LLNA[34] was used to assess the sensitization potential of the isosorbide bis-epoxides 1–3. The purity of the assessed isosorbide bis-epoxides was >99% (GC/MS or LC/MS) before testing of sensitization potential. The isosorbide bis-epoxides were tested in five different concentrations; 1: 3.9 mM (0.10% w/v), 39 mM (1.0% w/v), 190 mM (5.0% w/v), 390 mM (10% w/v), and 770 mM (20% w/v); 2: 21 mM (1.0% w/v), 54 mM (2.5% w/v), 110 mM (5.0% w/v), 210 mM (10% w/v), and 540 mM (25% w/v); and 3: 2.3 mM (0.10% w/v), 23 mM (1.0% w/v), 110 mM (5.0% w/v), 230 mM (10% w/v), and 460 mM (20% w/v). A detailed description is given in Supporting Information.
The three isosorbide bis-epoxides were evaluated for sensitization potential in vivo with the murine LLNA (Figure 2). The stimulation index (SI) is defined as the ratio between the dpm/lymph node for the test group and the control group. Test materials that at one or more concentrations cause an SI greater than 3 are considered positive in the LLNA. The estimated concentration required to induce an SI of 3 (EC3) is used to determine the sensitizing potency of the test compound. […] Isosorbide bis-epoxide 1 gave an EC3 value of 0.17 M (4.4%), 3 gave an EC3 value of 0.36 M (16%), and no EC3 value was obtained for 2 (for full results, see the Supporting Information, Table S1).
A previously published protocol1 of the LLNA2 was used to assess the sensitization potential of the isosorbide bis-epoxides 1-3. The purity of the assessed isosorbide bis-epoxides was >98% according to LC/MS analysis. The isosorbide bis-epoxides were tested in five different concentrations; 1: 3.87 mM […]
456 mM (20% w/v). Briefly, mice in groups of three received 25 µL of test compound dissolved in the vehicle acetone/olive oil (4:1 v/v), on the dorsum of the ears for three consecutive days (day 0, 1, and 2). A sixth group of four mice was treated with vehicle only (control group). On day 5, all mice were injected intravenously via the tail vein with 250 µL of phosphate buffered saline (PBS) (pH 7.4, 137 mM NaCl, 2.7 mM KCl, and 10 mM phosphate buffer) containing 20 µCi [methyl-3H]thymidine. Five hours later the mice were sacrificed, the draining lymph nodes were excised and pooled for each group, followed by preparation of single-cell suspensions of lymph nodes in PBS by using cell strainers (Falcon; BD Labware, Franklin Lakes, NJ, USA; pore size, 70 µm). Cell suspensions were washed twice with PBS, precipitated with trichloroacetic acid (TCA) (5%), and stored at 4 °C overnight. The samples were then centrifuged, resuspended in TCA (5%, 1 mL), and transferred to scintillation cocktail (10 mL) (EcoLume INC Radiochemicals, Solon, OH, USA). The incorporation of [methyl-3H]thymidine into DNA was measured by b-scintillation counting with a Beckman LS 6000TA instrument. Results are expressed as the mean dpm/lymph node for each experimental group and as stimulation index (SI). The SI is defined as the ratio between dpm/lymph node for the test group and the control group. Test materials that at one or more concentrations cause an SI greater than 3 are considered positive in the LLNA. EC3 values (the estimated concentration required to induce an SI of 3) were calculated by linear interpolation.
Results from the Local Lymph Node Assay
Table S1: Full results from the LLNA of bis-epoxides 1-3a
Test Test [3H]thymidine SI EC value

[1] = estimated concentration required to induce an SI of 3, linear interpolation

c1cc(CC2CO2)ccc1CO[C@H]1CO[C@H]2[C@@H]1OC[C@H]2OCc1ccc(CC2CO2)cc1 (stereo partly drawn) [Compound 3, (3R,3aR,6S,6aR)-3,6-O-Bis[4-(3,4-epoxypropyl)benzyl]-1,4:3,6-dianhydro-D-glucitol]
EC3 value (%) (as printed in main text): 16% | sensitizing potency classification (classified by EC3): moderate (EC3 > 2%, moderate) | EC3 value [1]: 0.36 M | EC3 value (% w/v) [1]: 15.8 % w/v | SI (test concentration 0.10% w/v): 1.06 | [3H]thymidine incorporation (dpm/lymph node) (test concentration 0.10% w/v): 479 dpm/lymph node | SI (test concentration 1.0% w/v): 1.56 | [3H]thymidine incorporation (dpm/lymph node) (test concentration 1.0% w/v): 706 dpm/lymph node | SI (test concentration 5.0% w/v): 2.55 | [3H]thymidine incorporation (dpm/lymph node) (test concentration 5.0% w/v): 1158 dpm/lymph node | SI (test concentration 10% w/v): 2.85 | [3H]thymidine incorporation (dpm/lymph node) (test concentration 10% w/v): 1292 dpm/lymph node | SI (test concentration 20% w/v): 3.11 | [3H]thymidine incorporation (dpm/lymph node) (test concentration 20% w/v): 1412 dpm/lymph node

O=C(OC1COC2C(OC(=O)c3ccc(CC4CO4)cc3)COC12)c1ccc(CC2CO2)cc1 [Compound 2, (3R,3aR,6S,6aR)-3,6-O-Bis[4-(3,4-epoxypropyl)benzoyl]-1,4:3,6-dianhydro-D-glucitol]
LLNA outcome (in concentrations up to 25% w/v (0.54 M)): nonsensitizing | SI (test concentration 1.0% w/v): 1.06 | [3H]thymidine incorporation (dpm/lymph node) (test concentration 1.0% w/v): 455 dpm/lymph node | SI (test concentration 2.5% w/v): 1.43 | [3H]thymidine incorporation (dpm/lymph node) (test concentration 2.5% w/v): 614 dpm/lymph node | SI (test concentration 5.0% w/v): 1.10 | [3H]thymidine incorporation (dpm/lymph node) (test concentration 5.0% w/v): 473 dpm/lymph node | SI (test concentration 10% w/v): 1.07 | [3H]thymidine incorporation (dpm/lymph node) (test concentration 10% w/v): 459 dpm/lymph node | SI (test concentration 25% w/v): 2.27 | [3H]thymidine incorporation (dpm/lymph node) (test concentration 25% w/v): 972 dpm/lymph node
